Laboratory results from article PMC9499525, “Tissue-restricted inhibition of mTOR using chemical genetics” (Proceedings of the National Academy of Sciences of the …, 2022).

How the values were obtained:
[1] = molecular target: T1, FKBP12-HA (wild-type) / GST-mTOR FRB domain ternary complex (Homo sapiens, UniProt P42345+P62942); assay: TR-FRET ternary complex formation, wild-type FKBP12 with mTOR FRB; format: binding; details: wild-type FKBP12 + mTOR FRB, n = 3, read-out: EC50 of ternary complex induction, wild-type FKBP12
T1 construct: recombinant HA-tagged wild-type or V55G mutant FKBP12 with GST-tagged mTOR FRB domain; 8xHis (cleaved yes); made in house; host or cells: E. coli BL21 (DE3) for FKBP12
Method: TR-FRET assay was performed using recommended conditions from Cisbio with slight modifications. FKBP12-HA, FKBP12 V55G-HA, and GST-mTORFRB recombinant proteins were each diluted to 5 nM in assay buffer (20 mM HEPES pH 7.5, 150 mM NaCl, 0.05% Tween-20, 0.1% bovine serum albumin [BSA], 0.5 mM dithiothreitol [DTT]). Anti-GST-Tb (Cisbio) and Anti-HA-XL665 (Cisbio) were diluted to 0.625 µg/mL and 5 µg/mL, respectively, in assay buffer. Rapa* compounds and FK506 were diluted to 50 µM and rapamycin to 5 µM in assay buffer containing 5% DMSO, and threefold serial dilution series were made from these solutions. […] Time-resolved fluorescence was read on a Tecan Spark 20M plate reader with the following parameters: Lag time: 60 µs; Integration time: 500 µs; Read A: Excitation filter 320 ([25]) nm, Emission filter 610 ([25]) nm, Gain 130; Read B: Excitation filter 320 ([25]) nm, Emission filter 665 ([8]) nm, Gain 165. […]
Human FKBP12 coding sequence was cloned a pET-47b bacterial expression vector using Gibson assembly and a C-terminal HA-tag was added by QuickChange PCR. FKBP12 proteins were expressed as 8xHis fusions in E. coli BL21 (DE3) cells. […]
PAMPA was performed by Quintara Discovery as described previously (2). Compounds were analyzed at 100 µM in PBS and measured using liquid chromatography-mass spectrometry (LC-MS) after 5 hours. […]

[2] = tested on: S. cerevisiae BY4741 fpr1-KO expressing human FKBP12 variants; assay: Yeast disk diffusion growth inhibition assay; format: cell-based, Saccharomyces cerevisiae; details: 100 µM on disk, 3 d
Excerpt: BY4741 fpr1::URA3 yeast were generated by homologous recombination, selected on Ura- synthetic complete medium and subsequently grown in yeast extract-peptone-dextrose (YPD) medium ([46]). Human FKBP12 coding sequence was cloned via Gibson assembly into a pCH043 yeast expression vector, which had been previously modified with an HIS3 selection open reading frame (ORF). The C-terminal HA-tag and F46/V55 mutations were introduced by site-directed mutagenesis PCR. Plasmids were transformed into the BY4741 fpr1::URA3 strain and selected on His- synthetic complete medium. Isolated strains were verified by plasmid sequencing. To prepare yeast protein lysates, 2 optical density (OD) equivalents from an overnight culture was resuspended in 200 µl 0.1 M NaOH and incubated at room temperature for 15 min. Cells were pelleted, resuspended in 50 µL 2x SDS loading dye, and heated at 95 °C for 5 min. Following centrifugation at 20,000 × g for 10 min, supernatant was saved for analysis.
Yeast strains containing FKBP12-expression vectors were shaken overnight at 30 °C in 3 mL His- synthetic complete media. 0.1 OD of culture was spun down, resuspended in 1 mL sterile water, and 100 µL was spread on His-synthetic media containing galactose/raffinose to induce protein expression. Plates were incubated at 30 °C for 1 h to dry. Filter paper circles were prepared with a hole punch, placed on the plate, and 5 µL of DMSO, 100 µM rapamycin, or 100 µM Rapa* compound was pipetted onto the filter paper. Plates were incubated at 30 °C for 3 d before zones of growth inhibition were measured.

[3] = PAMPA membrane permeability; format: in vitro ADME; details: 100 µM in PBS, LC-MS
Method: PAMPA and Caco-2 membrane permeability assays
PAMPA was performed by Quintara Discovery as described previously (2). Compounds were
analyzed at 100 µM in PBS and measured using liquid chromatography-mass spectrometry (LC-

T1 sequence (P62942 whole entry, the tested form may be a part): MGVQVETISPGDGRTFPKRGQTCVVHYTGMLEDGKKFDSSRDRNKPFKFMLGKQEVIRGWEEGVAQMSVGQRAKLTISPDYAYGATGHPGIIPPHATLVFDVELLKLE
T1 sequence (P42345 2012-2144 limits assumed): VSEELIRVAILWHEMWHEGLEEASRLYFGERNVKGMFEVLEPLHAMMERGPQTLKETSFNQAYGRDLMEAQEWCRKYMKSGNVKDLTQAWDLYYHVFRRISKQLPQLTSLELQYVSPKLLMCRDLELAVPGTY

## CCO/N=C1/C[C@@H]([C@H](C)C[C@@H]2CC[C@@H](O)[C@H](OC)C2)OC(=O)[C@@H]2CCCCN2C(=O)C(=O)[C@]2(O)O[C@@H](CC[C@H]2C)C[C@H](OC)/C(C)=C/C=C/C=C/[C@@H](C)C[C@@H](C)C(=O)[C@H](OC)[C@H](O)/C(C)=C/[C@H]1C [Rapa*-3Z]
[1]
  EC50: 639 nM
[2]
  Growth inhibition of yeast expressing FKBP12 V55G: displayed the highest level of inhibition
[3]
  Papp at 5 h, 100 µM: 0.053 ×10⁻⁶ cm/s
